Literature values, collected in patent US12350336B2, “Photo-activatable compound, its preparation and therapeutic use” (City University of Hong Kong, priority 2021, dated 2025).

Conditions: calibration standard value

CN(C)c1ccc2nc3ccc(=[N+](C)C)cc-3sc2c1 [MB, Methylene blue]
ΦΔ (1O2 quantum yield) of calibration standard: 0.52
